From US10829483B2, “Thiophene, manufacturing method thereof, and pharmaceutical application of same” (CSTONE PHARMACEUTICAL (SUZHOU) CO., LTD., priority 2016, dated 2020) come the findings set out here.

Broadly, the IC50 is the concentration needed to halve the response being measured.

The target of the assay is URAT-1 (uric acid transporter) (Homo sapiens (Human), UniProt Q96S37). The assay is described as follows: Inhibition of 14C uric acid transport by HEK293 cell line stably transfected with the URAT-1 gene. Type of assay: cell-based. Particulars: URAT-1 (HEK293) cells; 14C-labelled uric acid 50 um, 10 min at 37° C.; read-out: IC50 (inhibition against URAT-1). As for the experimental part: Determination of the IC50 value of the inhibitory activity of the compound against uric acid reabsorption by the HEK293 cell line stably transfected with the URAT-1 (uric acid transporter) gene.
Chain of URAT-1 (uric acid transporter) (Q96S37 whole entry): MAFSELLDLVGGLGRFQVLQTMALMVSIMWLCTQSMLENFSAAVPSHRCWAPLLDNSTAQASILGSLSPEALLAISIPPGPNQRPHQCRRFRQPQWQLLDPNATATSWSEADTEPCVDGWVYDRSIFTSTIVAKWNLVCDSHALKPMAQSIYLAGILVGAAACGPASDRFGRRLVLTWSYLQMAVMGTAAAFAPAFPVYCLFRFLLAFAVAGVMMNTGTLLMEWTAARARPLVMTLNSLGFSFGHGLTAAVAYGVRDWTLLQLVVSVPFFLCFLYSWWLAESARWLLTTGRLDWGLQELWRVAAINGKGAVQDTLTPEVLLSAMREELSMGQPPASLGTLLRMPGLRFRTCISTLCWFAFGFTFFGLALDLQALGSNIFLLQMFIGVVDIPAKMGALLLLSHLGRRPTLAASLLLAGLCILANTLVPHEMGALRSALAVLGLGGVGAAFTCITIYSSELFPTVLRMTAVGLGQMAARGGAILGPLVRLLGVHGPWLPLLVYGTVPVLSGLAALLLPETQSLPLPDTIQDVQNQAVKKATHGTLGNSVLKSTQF
URAT-1 (HEK293) cell line: the HEK293 cell line stably transfected with the URAT-1 gene
cell culture medium: DMEM culture medium added 10% fetal bovine serum (FBS), 1% sodium pyruvate and […] G418.
Uric acid solution labeled by ^14C.
1) the supernatant of cell culture was aspirated, and cells was washed with 10 mL PBS.
2) preheated trypsin was added into the cell culture flask, and the cell culture flask was rotated to make trypsin covering onto the bottom of cell culture flask equably.
3) the cells were suspended with 10-15 mL of culture medium in each T150 flask, took 0.1 mL of cell suspension and diluted it with two volumes of trypan blue solution to count the cells.
4) cells were diluted to 2.5×10^5/mL with the culture medium, and the diluted cells were added into a rat tail collagen-coated 24-well plate (800 uL/well, 2×10^5 cells/well). The plate was incubated overnight at 37° C. in a 5% CO2 incubator.
1) cells were seeded into 24-well plate, and supernatant was discarded after 16-18 h. The cells were washed twice using 600 ul HBSS buffer.
2) HBSS buffer was removed and 180 ul of HBSS buffer was added into each well again.
1) compounds were dissolved into 100% DMSO, and diluted into 6 concentration points by 3-fold dilution, or into 2 concentration points by 10-fold dilution, and the highest starting concentration was 50 mM.
2) 5 ul DMSO solution in step 1) was transferred into 120 ul of HBSS buffer to make a 25-fold dilution.
3) 10 ul diluted solution in step 2) was added into 24-well plate, and the plate was incubated for 15 min at 37° C. in a 5% CO2 incubator. The final concentration of DMSO is 0.2%. The control well contained 0.2% DMSO without compound.
^14C-labelled uric acid was diluted and added into plate, and the final concentration is 50 um. The plate was incubated for 10 min at 37° C. in a 5% CO2 incubator. After supernatant was discarded, cells were washed with HBSS buffer twice. Cells was lysed with 0.1M NaOH. And then cell lysis solution was collected into liquid scintillation tube and added with liquid scintillation solution. The signal was read by liquid scintillation counter Tri-Carb. e) data analysis URAT-1 inhibition by the treatment of the compounds was analyzed by calculating the percentage of inhibition. Non-linear fitting analysis of percent inhibition (inh %) data using GraphPad Prism software to generate the IC50 value.
Regarding `COc1ccc(-c2sc(-n3c(Br)nnc3SC(C)(C)C(=O)O)cc2Cl)cc1` [WX071], the half-inhibitory concentration (IC50) lay within 2 to 20 µM.

Consider `CCOC(=O)CSc1nncn1-c1cc(Br)c(C2CC2)s1` [WX072], for which the IC50 is greater than 20 µM. For `COC(=O)CSc1nncn1-c1cc(Br)c(-c2ccccc2)s1` [WX073], the IC50 is greater than 20 µM. Take `CCOC(=O)C(C)Sc1nncn1-c1cc(Br)c(C2CC2)s1` (stereo not drawn) [WX074]: the IC50 is greater than 20 µM. With `COC(=O)C(C)Sc1nncn1-c1cc(Br)c(-c2ccccc2)s1` (stereo not drawn) [WX075], the IC50 fell in the range of 2 to 20 µM.

`CCOC(=O)C(C)(C)Sc1nncn1-c1cc(Br)c(C2CC2)s1` [WX076]: the IC50 is 2 to 20 µM. As to `COC(=O)C(C)(C)Sc1nncn1-c1cc(Br)c(-c2ccccc2)s1` [WX077], the IC50 is greater than 20 µM. Turning to `Cc1cc(-n2c(Br)nnc2SCC(=O)O)sc1C1CC1` [WX078], the 50% inhibitory concentration (IC50) was greater than 20 µM. For `Cc1cc(-n2c(Br)nnc2SCC(=O)O)sc1-c1ccccc1` [WX079], the IC50 was in the range of 2 to 20 µM. As for `Cc1cc(-n2c(Br)nnc2SC(C)C(=O)O)sc1-c1ccccc1` (stereo not drawn) [WX080], the IC50 lay within 2 to 20 µM. For the molecule `Cc1cc(-n2c(Br)nnc2SC(C)(C)C(=O)O)sc1-c1ccccc1` [WX081], the IC50 is 2 to 20 µM. For `Cc1cc(-n2c(Br)nnc2SCC(=O)O)sc1-c1ccc(F)cc1` [WX082] the value was greater than 20 µM; for `COc1ccc(-c2sc(-n3c(Br)nnc3SCC(=O)O)cc2C)cc1` [WX083], greater than 20 µM. Regarding `Cc1cc(-n2c(Br)nnc2SCC(=O)O)sc1-c1ccc(C(F)(F)F)cc1` [WX084], the IC50 was greater than 20 µM. In the case of `Cc1cc(-n2c(Br)nnc2SCC(=O)O)sc1-c1ccc(C(C)(C)C)cc1` [WX085], the IC50 is greater than 20 µM. Take `Cc1cc(-n2c(Br)nnc2SC(C)C(=O)O)sc1-c1ccc(Cl)cc1` (stereo not drawn) [WX086]: the IC50 was in the range of 2 to 20 µM.

For the molecule `Cc1cc(-n2c(Br)nnc2SC(C)C(=O)O)sc1-c1cccc(F)c1` (stereo not drawn) [WX087], the IC50 lay in the range of 2 to 20 µM. Turning to `Cc1cc(-n2c(Br)nnc2SC(C(=O)O)C(C)C)sc1C1CC1` (stereo not drawn) [WX088], the IC50 is less than 2 µM. Turning to `Cc1cc(-n2c(Br)nnc2SC(C)(C)C(=O)O)sc1C1CC1` [WX089], the IC50 fell in the range of 2 to 20 µM. For `Cc1cc(-n2c(Br)nnc2SC(C(=O)O)c2ccccc2)sc1C1CC1` (stereo not drawn) [WX090] the value was 2 to 20 µM; for `CCC(Sc1nnc(Br)n1-c1cc(C)c(C2CC2)s1)C(=O)O` (stereo not drawn) [WX091], less than 2 µM. Consider `Cc1cc(-n2c(Br)nnc2SC2(C(=O)O)CCCC2)sc1C1CC1` [WX092], for which the IC50 was less than 2 µM. With `Cc1cc(-n2c(Br)nnc2SC2(C(=O)O)CCC2)sc1C1CC1` [WX093], the IC50 was less than 2 µM. On to `Cc1cc(-n2c(Br)nnc2SC(C)C(=O)O)sc1C1CC1` (stereo not drawn) [WX094], for which the IC50 is less than 2 µM.

`Cc1cc(-n2cnnc2SCC(=O)O)sc1-c1ccc(F)cc1` [WX095]: the IC50 was greater than 20 µM. For `COc1ccc(-c2sc(-n3cnnc3SCC(=O)O)cc2C)cc1` [WX096], the IC50 is greater than 20 µM.

`Cc1cc(-n2cnnc2SCC(=O)O)sc1-c1ccc(C(F)(F)F)cc1` [WX097]: the IC50 was greater than 20 µM. On to `Cc1cc(-n2cnnc2SCC(=O)O)sc1-c1ccc(C(C)(C)C)cc1` [WX098], for which the IC50 is greater than 20 µM.

As for `O=C(O)CSc1nnc(Br)n1-c1sc(-c2ccccc2)c2c1OCCO2` [WX099], the IC50 was greater than 20 µM. Regarding `CCOC(=O)C(C)(C)Sc1nnc(Br)n1-c1sc(C(=O)Nc2ccc(F)c(F)c2)c2c1CCCC2` [WX100], the IC50 was greater than 20 µM. Regarding `CC(C)c1nnc(SCC(=O)O)n1-c1sc(C2CC2)c2c1CCC2` [WX101], the IC50 is greater than 20 µM. For the molecule `CC(C)(Sc1nnc(Br)n1-c1sc(C2CC2)c2c1CCC2)C(=O)NO` [WX102], the IC50 lay within 2 to 20 µM.

On to `CCOC(=O)C(C)(C)Sc1nncn1-c1sc(C(=O)NC(O)CCBr)c2c1CCCC2` (stereo not drawn) [WX103], for which the IC50 fell in the range of 2 to 20 µM.
